Source: patent publication US20230364118A1, “RIBITOL TREATMENT” (priority 2020, published 2023)
Like-named read-outs stand apart in the source and are kept apart here.

Columns and labels:
[1] = Chronic (6 months) administration in mice; format: in vivo, mouse
Description: This response subsided at 48 hours after termination of treatment. No other adverse findings have been identified thus far with ribitol.

[2] = male, Bama, minipig, in vivo, 24 h
Description: Minipigs received 0 (vehicle, purified water), 0.3, 1.0, or 2.0 g/kg of ribitol in a Latinsquare design on Days 1, 12, 17, and 25, respectively. […] Body weights were measured at baseline and on each dosing day. On each dosing occasion, ECG waveforms, heart rate, and blood pressure data were recorded from at least 2 hours prior to dose (to establish baseline values) to approximately 24 hours post-dose. ECG tracings of a minimum of 30 seconds duration were obtained from all minipigs twice prior to each dose (at least 30 minutes apart) and at 0.5, 2, 4, 8, 12, and 24 hours post dose.

[3] = Functional observational battery (FOB)
Description: In this GLP study, the potential effects of ribitol on the CNS were evaluated in CD-1 mice utilizing the FOB. Male mice were randomly assigned to 4 groups of 8 and were administered a single oral dose of 0 (vehicle, purified water), 0.5, 1.0, or 2.0 g/kg ribitol. The FOB tests were conducted pre dose, and at 0.5, 1, 2, 4, and 24 hours post dose.

[4] = 28-day oral GLP toxicity study with 14-day recovery; conditions: mouse
Description: The purpose of this GLP study was to assess the potential toxicity, reversibility, persistence, or delayed effects of ribitol in mice following 28 days of BID oral gavage dosing. In addition, 20 mice/sex/group were treated for 28 days with either vehicle (purified water), 0.5, 1.0, or 1.5 g/kg/dose ribitol BID (1.0, 2.0, or 3.0 g/kg/day) followed by 14-day treatment free recovery period. In-life assessments included mortality, clinical signs including detailed clinical observations pre-test and once weekly during the dosing and recovery phase, body weight, food consumption, ophthalmology, and clinical pathology (hematology and serum chemistry). Terminal endpoints included macroscopic pathology, organ weights and histopathology. Blood was taken from a satellite group of mice for plasma TK (3/sex/timepoint) on Days 1 and 28.

[5] = PK comparison QD, BID, TID oral dosing; format: in vivo; conditions: CD-1, mouse, plasma; for AUC(0-inf) / Cmax / half-life: po, 0.3 g/kg
Description: Each regimen was studied in 3 male and 3 female CD-1 mice. PK of ribitol following the final dose was compared among these three regimens. The first and the second subsets of mice receiving QD and BID of ribitol were bled at 0.5, 1, 2, 4, and 6 hours post QD dosing and the second dose of the BID dosing, respectively; the third subset of mice receiving TID of ribitol were bled at 0.5, 1, 2, 4 and 12 hours post the third dose.

in vivo [6] = assay: in vivo; parameters: species or system mouse
Single oral dose PK = format: in vivo; conditions: Bama, minipig, plasma
Description: The PK of ribitol was studied in 3 male and 3 female Bama minipigs following escalating PO dose levels using the same animals with a 48 hour washout period at 0.3 g/kg (Day 1) (FIG. 11A), 1.0 g/kg (Day 3) (FIG. 11B) and 0.3 g/kg TID (Day 16) (FIG. 11C). On Days 1 and 3, blood samples were collected at 0, 0.5, 1, 2, 4, 8, 12, and 24 hours post dose from all animals. On Day 16, blood samples were collected from all animals at 0, 0.5, 1, 2, 4, 6 (pre-second dose), 6.5, 7, 8, 10, 12 (pre-third dose), 12.5, 13, 14, 16, and 24 hours post dose.

in vivo [7] = conditions: minipig, po
Description: The purpose of this study was to determine the MTD following two oral doses 6±0.5 hours apart (Phase 1) and to characterize the toxicity and TK profile following 7 days BID dosing with ribitol with 6±0.5 hours between doses in minipigs.
Minipigs were assessed for viability, clinical signs, body weight, food consumption, clinical pathology (hematology, coagulation, and serum chemistry), organ weights (adrenal glands, brain, heart, kidneys, liver with gall bladder, ovary, spleen, testes, and thymus), and macroscopic pathology at necropsy. Blood was taken for plasma TK analysis on Days 1 and 7.
In Phase 1, Bama minipigs (2/sex/group) were ribitol at 0.3, 1.0, 1.5, or 2.0 g/kg/dose BID (0.6, 2.0, 3.0, or 4.0 g/kg/day) with 5.5 to 6.5 hours between doses. […] Minipigs were assessed for viability, clinical signs, body weight, food consumption, and macroscopic findings at necropsy.
Doses were selected for Phase 2 based on the Phase 1 study results and in compliance with the guidance criteria for high dose selection for general toxicity studies (ICH M3 [R2]). In this phase, minipigs (2/sex/group) were given oral doses of 0 (vehicle control, water), 0.1, 0.3, or 1.0 g/kg/dose ribitol BID with 5.5 to 6.5 hours between doses (0.2, 0.6, or 2.0 g/kg/day, respectively).

[8] = female, PO 0.3 g/kg/dose BID, last dose
[9] = female, PO 0.3 g/kg/dose TID, last dose
[10] = male, PO 0.3 g/kg/dose BID, last dose
[11] = male, PO 0.3 g/kg/dose TID, last dose

## OC[C@@H](O)[C@@H](O)[C@@H](O)CO [ribitol, (2R,3s,4S)-Pentane-1,2,3,4,5-pentol]
[1]; 6 months, ≥2 g/kg/day
  adverse findings: intestinal bloating and soft stool were observed
[1]; intestinal bloating and soft stool
  time for response to subside after termination of treatment: 48 h
[2]
  NOEL above efficacious dose of 0.5 g/kg in FKRP mutant mouse models: approximately 4 fold
  safety margin for proposed clinical starting dose: 227 fold
[3]; 0.5, 1.0, 2.0 g/kg, 0.5-24 h post dose
  treatment-related effects on FOB parameters: no treatment-related effects
[3]; male, CD-1, mouse, in vivo, 24 h
  safety margin for proposed clinical starting dose: 19 fold
[3]; single oral dose, male, highest dose tested
  NOEL, CNS effects (FOB): 2000 mg/kg
[4]; 28 days oral
  NOAEL: 1.5 g/kg/dose BID
[4]; in vivo
  time to resolution of soft or abnormal stools: 2 to 8 days
[5]; PO 0.3 g/kg QD, female
  Tmax: 30 min
[5]; PO 0.3 g/kg QD, male
  Tmax: 30 min
[5]; female, PO 0.3 g/kg QD
  AUC(0-inf): 47.1 µg·h/mL
  Cmax: 33.3 µg/mL
  half-life: 70.2 min
[5]; [8]
  AUC(0-inf): 48.3 µg·h/mL
  Cmax: 28.3 µg/mL
  half-life: 59 min
[5]; [9]
  AUC(0-inf): 40.6 µg·h/mL
  Cmax: 43.9 µg/mL
  half-life: 31.8 min
[5]; male, PO 0.3 g/kg QD
  AUC(0-inf): 45.2 µg·h/mL
  Cmax: 34.2 µg/mL
  half-life: 50.3 min
[5]; [10]
  AUC(0-inf): 49.6 µg·h/mL
  Cmax: 27.4 µg/mL
  half-life: 90 min
[5]; [11]
  AUC(0-inf): 28.2 µg·h/mL
  Cmax: 31.4 µg/mL
  half-life: 27.2 min
In vivo [6]; CD-1, mouse, po, 0.5 mg/kg/day, AUC(0-24), calculated exposure
  AUC(0-t): 182 µg·h/mL
In vivo [6]; CD-1, mouse, po, 2 g/kg/day, AUC(0-24), calculated exposure
  AUC(0-t): 727 µg·h/mL
In vivo [6]; female, CD-1, mouse, po, 3 g/kg/day, Steady-state AUC(0-24)
  AUC(0-t): 839 µg·h/mL
In vivo [6]; female, mouse, 3 g/kg/day, Steady-state AUC(0-24)
  AUC(0-t): 749 µg·h/mL
In vivo [6]; male, CD-1, mouse, po, 3 g/kg/day, Steady-state AUC(0-24)
  AUC(0-t): 1340 µg·h/mL
In vivo [6]; male, mouse, 3 g/kg/day, Steady-state AUC(0-24)
  AUC(0-t): 974 µg·h/mL
Single oral dose PK; single PO 0.3 g/kg, female
  AUC(0-inf): 245 µg·h/mL
  Cmax: 128 µg/mL
  half-life: 73.8 min
Single oral dose PK; single PO 0.3 g/kg, female, read-out: % F
  bioavailability: 65.3%
Single oral dose PK; single PO 0.3 g/kg, female, read-out: Tmax
  Tmax: 40.2 min
Single oral dose PK; single PO 0.3 g/kg, male
  AUC(0-inf): 210 µg·h/mL
  Cmax: 112 µg/mL
  half-life: 96 min
Single oral dose PK; single PO 0.3 g/kg, male, read-out: % F
  bioavailability: 55.9%
Single oral dose PK; single PO 0.3 g/kg, male, read-out: Tmax
  Tmax: 30 min
Single oral dose PK; single PO 1.0 g/kg, female
  AUC(0-inf): 878 µg·h/mL
  Cmax: 368 µg/mL
  half-life: 85.8 min
Single oral dose PK; single PO 1.0 g/kg, female, read-out: % F
  bioavailability: 70.2%
Single oral dose PK; single PO 1.0 g/kg, female, read-out: Tmax
  Tmax: 40.2 min
Single oral dose PK; single PO 1.0 g/kg, male
  AUC(0-inf): 869 µg·h/mL
  Cmax: 404 µg/mL
  half-life: 88.2 min
Single oral dose PK; single PO 1.0 g/kg, male, read-out: % F
  bioavailability: 69.4%
Single oral dose PK; single PO 1.0 g/kg, male, read-out: Tmax
  Tmax: 30 min
Single oral dose PK; both sexes, po, read-out: Tmax after oral administration
  Tmax: < 120 min
Single oral dose PK; both sexes, po, range over doses and sexes, read-out: oral bioavailability
  bioavailability: 55.9 to 70.2%
In vivo [7]; both, Bama
  MTD at 14 days: ≥ 4000 mg/kg/day
In vivo [7]
  MTD: ≥ 2.0 g/kg/dose BID
